# Values of other authors in patent US20220387434A1, “COMBINATION OF A BTK INHIBITOR AND AN MDM2 INHIBITOR FOR CANCER TREATMENT” (QUOGUE IP HOLDINGS LLC, priority 2019, published 2022).
# Test system: lymphocytes
# Conditions: Ibr versus Veh (FIG. 3)
compound,measurement,value
"C=CC(=O)N1CCC[C@@H](n2nc(-c3ccc(Oc4ccccc4)cc3)c3c(N)ncnc32)C1 [Ibrutinib, 1-[(3R)-3-[4-amino-3-(4-phenoxyphenyl)pyrazolo[3,4-d]pyrimidin-1-yl]piperidin-1-yl]prop-2-en-1-one]",mobilization of lymphocytes into the peripheral circulation,mobilization
